Results taken from patent US11571484B2, “Compositions that target tumor-associated macrophages and methods of use therefor” (Sanford Burnham Prebys Medical Discovery Institute, priority 2017, dated 2023).

Assays:
[1] = tested on: RAW 267.4 cells; assay: Phage biopanning on cultured CD206- RAW 267.4 macrophages; format: cell-based, mouse; conditions: phage-displayed peptide, 4 °C overnight
Description: A, Cultured RAW 267.4 mouse macrophages were fixed with PFA and stained with rat anti-CD206 (red) and counterstained with DAPI (blue). B, Phage display on RAW 267.4 cells. Cells were lifted using a cell scraper, centrifuged, brought to 4° C. and incubated with 0.5 mL of the same phage library used for the in vivo experiments (0.5 mL of 7×10^10 pfu/mL)+0.5 mL of DMEM, at 4° C. overnight. Cells were then washed four times resuspending in PBS and placing in a new tube every time, lastly the cells were suspended in LB+NP40%, lysed and phage insert were sequenced. The UNO clone is […] of the list (red). Only the top 50 hits from the screen are shown. Scale bar: 50 μm.
Mouse macrophage cell line Raw 267.4 (ATCC, VA, USA) was cultured in DMEM with FBS and antibiotics. Cells from a 25 cm^2 flask (˜3×10^6 cells) were lifted using a cell scraper, centrifuged, brought to 4. C and incubated with 0.5 mL of the same purified library used for the in vivo experiments (0.5 mL of 7×10^10 pfu/mL)+0.5 mL of DMEM, at 4-C overnight. Cells were then washed four times by re-suspending in PBS and placing them in a new tube every time, and finally suspended in LB+1% NP40, lysed and subjected to high throughput sequencing.

[2] = tested on: peritoneal macrophages; assay: In vivo phage display on peritoneal cells of 4T1 tumor-bearing versus normal mice; design: species or system mouse; conditions: phage-displayed peptide
Description: A, Naive phage library was injected intraperitoneally in 4T1 tumor-bearing mice and age-matched normal mice, and allowed to circulate for two h. Peritoneal cells were collected, the accompanying phages were rescued and the peptide-encoding segment of phage DNA was sequenced. […] Peritoneal cells were extracted from the mice, seeded on coverslips, allowed to attach for 2 h, fixed, permeabilized, and stained for CD206. CD206+ cells were counted from 6 different confocal images, 2 from each mouse. C, Highly repeated sequences obtained from the first round of the biopanning experiment shown schematically in panel A. D, Frequency of phage clones encoding UNO or a randomly picked peptide (CIGVSSDC) divided by the total number of repeated sequences) in the 4T1 tumor-bearing and normal mice.
Ten days later, the 4T1 mouse and a Balb/c female mouse of the matched age, were injected with 500 μL of a 7×10^10 pfu/mL of purified CX7C long-circulating library that bears a mutation on the p17 protein of tail fiber^45. After 2 h the mice were anesthetized and peritoneal cells were collected, washed by centrifugation, and lysed by hand-held homogenizer in 2 mL of LB+NP40 1%. The phage was amplified in E. coli strain BLT5403 for high throughput sequencing of peptide encoding segment of the phage genomic DNA using Ion Torrent semiconductor sequencing system.
In vivo phage display was carried out on orthotopic breast cancer bearing mice as outlined in FIG. 1A. Compared to peritoneal cells of healthy mice, […] macrophages were ˜5-fold overrepresented in Balb/c mice bearing metastatic syngeneic 4T1 breast tumors (FIG. 1B). We hypothesized that a peptide that binds to peritoneal macrophages in tumor-bearing mice may also target M2-like TAMs. Mice with 4T1 tumors were injected intraperitoneally (i.p.) with a phage library expressing 9-amino acid cyclic CX7C peptides. After 2 h, peritoneal cells were collected, bound phages were rescued by amplification, and the resulting phage pool was subjected to high-throughput sequencing of the peptide-encoding segment of the phage genome. […]

[3] = tested on: MEMs in B16F10 melanoma lung metastases; conditions: 30 nmoles i.v., 2 h
Description: (§1) Thirty nmoles of FAM-UNO or FAM-control peptide were injected intravenously into mice and allowed to circulate for 2 h. Mice were then sacrificed and tumor and tissues were analyzed by immunofluorescence using rabbit anti-FAM (green) and rat anti-CD206 (red) antibodies, and counterstained with DAPI. […] The metastases were induced by i.v. inoculation of B16F10 melanoma cells. […] Blue: DAPI. Representative fields from multiple sections (n≥3) prepared from at least 3 tumors are shown. Scale bar: 50 μm. Images shown are representative fields from multiple sections (≥3) prepared from at least 3 tumors (n≥3 mice). The graphs show mean+SEM of FAM signal quantified as described in Materials and Methods.
(§2) Tumor models were induced according to protocols approved by the Estonian Ministry of Agriculture, Committee of Animal Experimentation (permit #48). For the 4T1 breast model, 8-week old female Balb/c mice were injected in the mammary fat pad with 10^6 cells dispersed in 50 μL of PBS. For homing studies, mice were used 10 days later, when the tumor had reached ˜150 mm^3. For MCF-7 breast model, 8-week old female nude mice were implanted with an estrogen pellet, and 1 week later inoculated with 5×10^6 MCF-7 cells in 100 μL of cold Matrigel (BD Biosciences, CA, USA). Mice were used for homing studies three weeks later (tumor volume˜150 mm^3). For the metastatic gastric carcinoma, 10^6 MKN45-P cells in PBS were injected intraperitoneally in 8-week old female nude mice. Mice were used for homing studies two weeks later. For the metastatic melanoma model, 2×10^5 B16F10 cells were injected intravenously in 100 μL of PBS in C57 BL6 mice. The mice were used for homing studies 10 days after. […]
(§3) For free peptide homing studies, mice were injected intravenously with 30 nmoles of FAM-peptides in 100 μL of PBS. […] FAM was detected using Rabbit anti-FITC (Invitrogen, CA, USA. Catalog # A-889) at a dilution of 1/100 and using Alexa Fluor-546 anti-rabbit antibody (Invitrogen, Ca, USA. Catalog # A-11035) at a dilution of 1/200.

[4] = tested on: MEMs in MKN45-P tumors; conditions: 30 nmoles i.v., 2 h
Description: as §1, §2, §3

[5] = tested on: MEMs in WT-GBM tumors; assay: Free peptide homing and immunofluorescence in the orthotopic WT-GBM glioblastoma model; conditions: 30 nmoles i.v., 2 h
Description: as §1
(§4) Tumor models were induced according to protocols approved by the Estonian Ministry of Agriculture, Committee of Animal Experimentation (permit #48). For the 4T1 breast model, 8-week old female Balb/c mice were injected in the mammary fat pad with 10^6 cells dispersed in 50 μL of PBS. For homing studies, mice were used 10 days later, when the tumor had reached ˜150 mm^3. For MCF-7 breast model, 8-week old female nude mice were implanted with an estrogen pellet, and 1 week later inoculated with 5×10^6 MCF-7 cells in 100 μL of cold Matrigel (BD Biosciences, CA, USA). Mice were used for homing studies three weeks later (tumor volume˜150 mm^3). For the metastatic gastric carcinoma, 10^6 MKN45-P cells in PBS were injected intraperitoneally in 8-week old female nude mice. Mice were used for homing studies two weeks later. For the metastatic melanoma model, 2×10^5 B16F10 cells were injected intravenously in 100 μL of PBS in C57 BL6 mice. The mice were used for homing studies 10 days after. For the angiogenic glioblastoma model, WT-GBM 24, 7×10^5 cells were stereotactically injected in the right striatum of Fox/Nu mice 2 mm lateral and posterior of bregma of 2.5 mm deep. The mice were used for homing studies 6-7 days after the injection.
For free peptide homing studies, mice were injected intravenously with 30 nmoles of FAM-peptides in 100 μL of PBS. For nanoparticle homing studies-FAM-UNO—NP-PTX-, mice were injected intravenously in mice bearing MCF-7 breast tumors with 1 mg of Polymer in 100 μL pf PBS and allowed to circulate for 6 h. For tissue collection, the mice were anesthetized and the tissues collected and immediately placed in 4% cold PFA and left overnight at 4-C. Tissues were washed with PBS for 2 h at room temperature and cryoprotected with sucrose 15% at 4-C overnight and then in sucrose 30% at 4·C overnight. […] FAM was detected using Rabbit anti-FITC (Invitrogen, CA, USA. Catalog # A-889) at a dilution of 1/100 and using Alexa Fluor-546 anti-rabbit antibody (Invitrogen, Ca, USA. Catalog # A-11035) at a dilution of 1/200.

[6] = tested on: MRC1/CD206-expressing tumor-associated macrophages (MEMs) in 4T1 tumors; assay: Free peptide homing and immunofluorescence in the orthotopic 4T1 breast tumor model; conditions: 30 nmoles i.v., 2 h circulation
Description: (SEQ ID NO: 5) control peptide were injected intravenously into 4T1 tumor-bearing mice and allowed to circulate for 2 h. Mice were then sacrificed and tumor and tissues were analyzed by immunofluorescence using rabbit anti-FAM (green) and rat anti-CD206 or rat anti-TIE2 (red) antibodies, and counterstained with DAPI. All images were taken under the same imaging conditions. FAM-UNO accumulated in macrophages within tumors and lymph nodes positive for CD206 staining (A, B, C) and TIE2 (D, and H: Blow up of D). […] To ascertain that anti-CD206 is capable of detecting CD206 in the liver, an image was acquired with longer exposure time from an uninjected animal (FIG. 25). […] Green: FAM-peptide; Red: CD206 or TIE2, Blue: DAPI. Representative fields from multiple sections prepared from at least 3 tumors (n≥3 mice) are shown.
as §4
For free peptide homing studies, mice were injected intravenously with 30 nmoles of FAM-peptides in 100 μL of PBS. For nanoparticle homing studies-FAM-UNO—NP-PTX-, mice were injected intravenously in mice bearing MCF-7 breast tumors with 1 mg of Polymer in 100 μL pf PBS and allowed to circulate for 6 h. For tissue collection, the mice were anesthetized and the tissues collected and immediately placed in 4% cold PFA and left overnight at 4-C. Tissues were washed with PBS for 2 h at room temperature and cryoprotected with sucrose 15% at 4-C overnight and then in sucrose 30% at 4·C overnight. The tumor and the control organs were placed together in the same block with OCT compound (Leica Biosystems, Wetzlar, Germany), snap-frozen in isopentane, and sectioned at 10 μm. FAM was detected using Rabbit anti-FITC (Invitrogen, CA, USA. Catalog # A-889) at a dilution of 1/100 and using Alexa Fluor-546 anti-rabbit antibody (Invitrogen, Ca, USA. Catalog # A-11035) at a dilution of 1/200. CD31 was detected using rat anti-mouse CD31 (BD Biosciences, CA, USA. Catalog #: 553370), TIE2 was detected using rat anti-mouse TIE2 (Biolegend, CA, USA. Catalog #124001), CD209 was detected using rat anti-mouse CD209 (Biolegend, CA, USA. Catalog #147802), HLA ABC was detected using rat anti Human HLA ABC (Bio-Rad, CA, USA. Product code MCA485G), and CD206 was detected using ratanti-mouse CD206 (Bio-Rad, CA, USA. Product code MCA2235GA); using 1/100 primary antibody dilution and Alexa Fluor-647 anti-Rat antibody (Invitrogen, CA, USA. Catalog #21247) at 1/200 dilution. To quantify FAM signal from confocal images, the green channel of images taken by using 20× magnification objective was opened with ImageJ, converted to 8-bit grayscale and the integrated pixel intensity was measured. Different regions of tumors from three different mice were used.

CSPGAKVRC [peptide codenamed UNO, identified by in vivo phage display]
position of the phage clone in the list of hits [1]: 2140 | overrepresentation of phage in peritoneal cells from 4T1 tumor-bearing mice versus healthy mice ([2]; library injected i.p., 2 h): ~10 fold | representation among sequenced phage clones ([2]; peritoneal cells of 4T1 tumor mice): most highly represented non-truncated peptide

FAM-CRKQGEAKC: FAM-labeled control peptide CRKQGEAKC (SEQ ID NO: 5) of the same charge and molecular weight as FAM-UNO (not fully specified; FAM label) [reference compound]
homing to melanoma lung metastases [3]: Little to no | accumulation in MEMs / CD206+ cells [4]: no accumulation was detected in CD206^+ cells | accumulation in tumor [5]: did not accumulate in the tumor | accumulation in tumor ([5]; listed as FAM-Control peptide): Little to no | accumulation in MEMs / tumor homing [6]: no tumor homing
